Test results: ChEMBL document CHEMBL5726904, “Compounds, compositions, and methods” (2018)

Biological target: Leucine-rich repeat serine/threonine-protein kinase 2 (Homo sapiens, UniProt Q5S007, G2019S)
Assay: Biochemical Assay: Materials: LRRK2 G2019S enzyme Substrate (LRRKtide) ATP TR-FRET dilution buffer pLRRKtide antibody 384-well assay plate DMSOEnzyme Reaction Conditions 50 mM Tris pH 7.5, 10 mM MgCl2, 1 mM EGTA, 0.01% Brij-35, 2 mM DTT 5 nM LRRK2 134 μM ATP 60 minute reaction time 23° C. reaction temperature 10 μL total reaction volumeDetection Reaction Conditions 1× TR-FRET dilution buffer 10 mM EDTA 2 nM antibody 23° C. reaction temperature 10 μL total reaction volumeCompounds were prepared by initially diluting to 1 mM with DMSO. 35 μL of reference compound solution, 35 μL of test compound solution, and 35 μL HPE were successively added to the source plate (384-well assay plate, Labcyte). The plates were centrifuged at 2500 rpm for 1 minute and sealed in foil. POD was used to perform a 3.162 fold serial dilution and 100 nL of reference compound solution, test compound solution, HPE and ZPE were transferred to assay plates. The assay plate was centrifuged at 2500 rpm for 1 minute, and sealed with foil.To perform the enzyme reaction, 5 μL of LRRKtide substrate and kinase mixture in assay buffer was added to all wells of the assay plate. The plate was centrifuged to concentrate the mixture at the bottom of the wells. The assay plate was incubated at 23° C. for 20 minutes. […]

Chain of Leucine-rich repeat serine/threonine-protein kinase 2 (Q5S007 whole entry G2019S): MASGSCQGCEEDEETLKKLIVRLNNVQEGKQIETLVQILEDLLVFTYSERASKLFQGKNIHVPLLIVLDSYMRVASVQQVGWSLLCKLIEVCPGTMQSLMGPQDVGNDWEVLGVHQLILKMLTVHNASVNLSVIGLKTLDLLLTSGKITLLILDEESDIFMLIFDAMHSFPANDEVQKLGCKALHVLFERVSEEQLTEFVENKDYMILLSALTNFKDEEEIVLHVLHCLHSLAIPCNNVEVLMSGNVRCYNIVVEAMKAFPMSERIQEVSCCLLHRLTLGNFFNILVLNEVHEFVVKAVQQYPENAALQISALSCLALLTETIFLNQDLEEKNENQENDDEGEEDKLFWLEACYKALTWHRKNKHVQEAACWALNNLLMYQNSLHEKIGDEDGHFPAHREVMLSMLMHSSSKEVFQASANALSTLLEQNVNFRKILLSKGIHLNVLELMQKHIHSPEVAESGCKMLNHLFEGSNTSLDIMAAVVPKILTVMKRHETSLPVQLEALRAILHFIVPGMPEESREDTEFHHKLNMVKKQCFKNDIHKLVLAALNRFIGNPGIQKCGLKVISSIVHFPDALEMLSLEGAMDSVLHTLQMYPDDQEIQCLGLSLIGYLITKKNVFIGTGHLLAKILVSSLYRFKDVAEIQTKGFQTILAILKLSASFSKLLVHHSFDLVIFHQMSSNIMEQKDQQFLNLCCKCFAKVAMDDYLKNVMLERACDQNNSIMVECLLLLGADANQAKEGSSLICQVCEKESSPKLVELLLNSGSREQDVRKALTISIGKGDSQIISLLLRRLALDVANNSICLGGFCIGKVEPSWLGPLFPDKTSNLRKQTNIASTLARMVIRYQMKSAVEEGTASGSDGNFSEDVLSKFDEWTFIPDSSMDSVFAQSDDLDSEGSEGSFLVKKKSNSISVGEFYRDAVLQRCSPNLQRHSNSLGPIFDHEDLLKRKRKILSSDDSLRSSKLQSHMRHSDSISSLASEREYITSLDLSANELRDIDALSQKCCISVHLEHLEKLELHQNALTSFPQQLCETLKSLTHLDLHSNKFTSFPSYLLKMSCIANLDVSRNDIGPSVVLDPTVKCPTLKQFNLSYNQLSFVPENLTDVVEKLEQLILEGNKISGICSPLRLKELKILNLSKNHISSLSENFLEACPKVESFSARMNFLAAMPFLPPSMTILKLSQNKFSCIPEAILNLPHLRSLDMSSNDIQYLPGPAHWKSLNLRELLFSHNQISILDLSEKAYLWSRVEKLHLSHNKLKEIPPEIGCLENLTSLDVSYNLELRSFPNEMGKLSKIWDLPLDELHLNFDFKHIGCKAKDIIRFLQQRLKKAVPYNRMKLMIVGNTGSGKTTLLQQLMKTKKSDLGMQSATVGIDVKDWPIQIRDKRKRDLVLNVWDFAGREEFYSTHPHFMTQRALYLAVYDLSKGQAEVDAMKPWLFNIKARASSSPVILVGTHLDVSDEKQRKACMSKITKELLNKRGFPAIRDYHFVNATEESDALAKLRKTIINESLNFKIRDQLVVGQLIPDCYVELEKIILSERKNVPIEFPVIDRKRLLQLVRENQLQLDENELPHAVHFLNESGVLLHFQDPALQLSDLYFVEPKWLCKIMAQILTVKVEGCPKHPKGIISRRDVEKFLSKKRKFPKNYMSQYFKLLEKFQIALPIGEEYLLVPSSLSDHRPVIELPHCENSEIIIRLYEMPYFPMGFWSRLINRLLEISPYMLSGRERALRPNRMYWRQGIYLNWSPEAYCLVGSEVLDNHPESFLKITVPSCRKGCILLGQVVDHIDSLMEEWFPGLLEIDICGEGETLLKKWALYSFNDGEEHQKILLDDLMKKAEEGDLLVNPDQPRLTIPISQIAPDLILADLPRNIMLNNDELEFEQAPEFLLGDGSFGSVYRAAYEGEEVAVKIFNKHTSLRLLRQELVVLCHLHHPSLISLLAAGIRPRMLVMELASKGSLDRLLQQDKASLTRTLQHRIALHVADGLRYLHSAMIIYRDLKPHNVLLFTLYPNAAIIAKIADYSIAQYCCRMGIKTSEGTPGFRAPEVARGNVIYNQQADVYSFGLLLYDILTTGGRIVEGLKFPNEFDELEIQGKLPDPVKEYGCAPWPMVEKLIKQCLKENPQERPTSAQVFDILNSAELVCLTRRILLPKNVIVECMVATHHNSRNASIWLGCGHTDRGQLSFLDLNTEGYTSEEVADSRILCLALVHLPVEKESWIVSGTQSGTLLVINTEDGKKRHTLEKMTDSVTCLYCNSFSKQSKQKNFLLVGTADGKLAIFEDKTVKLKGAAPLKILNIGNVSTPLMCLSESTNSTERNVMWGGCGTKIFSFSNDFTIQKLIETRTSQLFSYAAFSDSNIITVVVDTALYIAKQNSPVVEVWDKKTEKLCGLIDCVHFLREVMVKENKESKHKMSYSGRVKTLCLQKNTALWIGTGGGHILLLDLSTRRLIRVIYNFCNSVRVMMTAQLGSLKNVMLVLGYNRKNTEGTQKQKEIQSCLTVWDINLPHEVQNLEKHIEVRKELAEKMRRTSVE

| Compound | IC50 [µM] |
| --- | --- |
| COc1nc(Nc2cn(C3C[C@@H]3C#N)nc2C2CC2)ncc1Br (single isomer, unassigned) | < 0.03 |
| COc1nc(Nc2cn(C(C)(C)C#N)nc2C)ncc1Br | < 0.03 |
